# Like-named read-outs stand apart in the source and are kept apart here.
# Columns and labels:
# [1] = test system: hepatocytes from male rats (Sprague Dawley); assay: In vitro metabolism study in rat hepatocytes in suspension, GC-MS; details: for Residual concentration: male, Sprague Dawley, rat, 4 h, 100 μM
# Description: In order to study in vitro metabolism in rat hepatocytes, Lilial™ and compounds of the present invention may be incubated in the presence of rat hepatocytes in suspension. Reduction in the concentration of Lilial™ and the compounds of the present invention and formation of any of the corresponding benzoic acid derivatives may be analysed by GC-MS.
# Cryopreserved hepatocytes from male rats (Sprague Dawley; Lifetechnologies) were defrozen, washed in Cyropreserved Hepatocytes Recovery Medium (CHRM; Lifetechnologies) and suspended in Williams E Medium (WEM; Lifetechnologies). Lilial™, or the compounds of the present invention (final concentration: 100 μM) were added to the cells (1×10^6 viable cells/ml) and suspensions were incubated up to 4 hours at 37° C. on a shaker in duplicate. Metabolism of testosterone was monitored as positive control. Decrease of the test compounds and formation of the corresponding benzoic acid derivative was determined by GC-MS analysis of methyl esters formed after derivatisation with trimethylsilyl diazomethane (Sigma-Aldrich) in methanol. The test compounds react with diazomethane yielding a methyl ketone which was used for the quantification of Lilial™ and the compound of formula (I). Metabolism was stopped with ice cold 1 M HCl, samples were extracted with tert-butyl methyl ether (MTBE) and analysed by GC-MS. Incubations containing testosterone as control were also stopped with ice cold 1 M HCl, centrifuged to separate the cells, filtrated and the decrease of testosterone analysed by LC-MS.
# guinea-pigs = details: guinea pig, in vivo; cited from earlier work
# primates = details: cited from earlier work
# [2] = test system: reproductive organs of male rats; details: rat, in vivo; cited from earlier work
# mice = details: mouse, in vivo; cited from earlier work
# [3] = test system: reproductive organs of dogs; details: dog, in vivo; cited from earlier work
SMILES,Residual concentration [1] [µM],also measured
Cc1cc(CC(C)C)cc(C)c1CCC=O,0,–
Cc1ccc(CC(C)C)cc1CC(C)C=O (centres unmarked),0,–
Cc1ccc(CCCC(C)C)cc1CCC=O,2.4,–
C[C@]12CC[C@H]3[C@@H](CCC4=CC(=O)CC[C@@]43C)[C@@H]1CC[C@@H]2O [testosterone],–,"Decrease / metabolism of compound in rat hepatocytes ([1]; rat hepatocytes, up to 4 hours at 37° C.): rapid decrease"
Cc1cc(CCCC(C)C)ccc1CCC=O,0,–
"CC(C=O)Cc1ccc(C(C)(C)C)cc1 (centres unmarked) [Lilial™, 3-(4-tert-butylphenyl)-2-methylpropanal]",0,Decrease / metabolism of compound in rat hepatocytes [1]: metabolised rapidly; Toxic effects (guinea-pigs): No effects; Toxic effects (primates): No effects; Toxic effects on reproductive organs [2]: toxic effects on the reproductive organs; Toxic effects (mice): No effects; Toxic effects on reproductive organs [3]: toxic effects on the reproductive organs
Cc1cc(CCC(C)C)ccc1CCC=O,0,–
Cc1cc(CC(C)C)ccc1CCC=O,0,–
